{"source": "patent US20260357349A1", "about": "“METHODS OF IDENTIFYING AND TREATING CANCER” (Agency for Science, Technology and Research, priority 2022, published 2026)", "key": {"[1]": {"system": "RELA occupancy on the chromatin (786-O cells)", "test": "RELA ChIP after bortezomib, 786-O", "assay_type": "cell-based, human", "protocol": "(§1) Colony formation of parental (WT) or PBRM1 knockout (KO) 786-O cells expressing shRNA against non-targeting control (NC), RELA, or NFKB1 cultured with a) 10% or b) 2% serum. c) Gene expression changes of NF-κB target genes in 786-O cells treated with 0.006 μM bortezomib (BTZ) or 0.6 µM Bay 11-7085 for 24 hours (n=3 technical replicates). * p-value<0.05 (two-sided t-test). […] A positive log fold change refers to gain in bortezomib treatment over DMSO. g) Colony formation of 786-O isogenic cells and h) NCC432 isogenic cells treated with bortezomib for a week. Tumor formation of isogenic 786-O cells (i) and NCC432 cells (j) treated with PBS control or 0.5 mg/kg bortezomib (BTZ) in NSG mice. (n=10 tumors per group for 786-O, and n=16 tumors for NCC432 PBS EV group and 12 tumors for NCC432 PBS PBRM1 group and 14 tumors for both NCC432 EV and PBRM1 BTZ groups). Data are presented as mean values+/−SEM. k) Model for the study.\nData are presented as median+/−25%. Lower whisker is smallest observation greater than or equal to 25% quantile-1.5*interquantile range (IQR). Upper whisker represents the largest observation less than or equal to 75%+1.5*IQR. Amount of normalized RELA protein in the c) input or d) co-immunoprecipitated with SMARCA4 from 3 independent runs. […]"}, "NCC432 tumors": {"system": "NCC432 tumors", "test": "Tumor formation and survival of NSG mice bearing NCC432 isogenic cells", "assay_type": "in vivo", "protocol": "as §1\nData are presented as median+/−25%. Lower whisker is smallest observation greater than or equal to 25% quantile-1.5*interquantile range (IQR). Upper whisker represents the largest observation less than or equal to 75%+1.5*IQR. Amount of normalized RELA protein in the c) input or d) co-immunoprecipitated with SMARCA4 from 3 independent runs. Data are presented as mean values+/−SD. e) Tornado plots of RELA and SMARCA4 ChIP-seq signals in parental 786-0 or PBRM1-KO 786-O cells treated with DMSO or 0.005 μM bortezomib for 9 hours. f) Kaplan-Meier curves of NSG mice bearing 786-O isogenic cells treated with PBRM1 control or 0.5 mg/kg bortezomib (WT: n=10 PBS arm, median survival=39 days; n=10 bortezomib arm, median survival=52 days, HR=4.1, p=3E-6, log rank test; KO: n=10 PBS arm, median survival=35 days, n=10 bortezomib arm, median survival=66 days, HR=4.1, p=3E-6, log rank test). g) Kaplan-Meier curves of NSG mice bearing NCC432 isogenic cells treated with PBRM1 control or 0.5 mg/kg bortezomib (EV: n=16 PBS arm, median survival=42 days; n=14 bortezomib arm, median survival=49 days, HR=2.5, p=0.0009, log rank test; PBRM1: n=12 PBS arm, median survival=55 days; n=14 bortezomib arm, median survival=58 days, HR=1.2, p=0.5, log rank test). h) 786-O PBRM1 WT or KO cells were screened against the high-specific SGC epigenetic probe collection and cell viability was measured by colony formation after 1 week of treatment relative to DMSO control.\nAll animal studies were conducted in compliance with animal protocols approved by Institutional Animal Care and Use Committee (IACUC) of Singapore. Female NOD/SCID mice (8-10 week old) were implanted subcutaneously with 1×10^6 786-0 cells with either wildtype PBRM1 or PBRM1 knocked out subcutaneously. Male NSG mice (The Jackson laboratory) were implanted with 1×10^6 A498, NCC2112 or NCC432 with or without PBRM1. Tumor volume was monitored every 3-4 days. Tumor volume was calculated as (length×width×width)×π/6. Animals were sacrificed when the tumor volume exceeded 2000 mm^3.\nBortezomib […] was given twice weekly (day1, day 4) to male NSG mice (The Jackson laboratory) via the tail vein. Tumor volume and body weight were monitored every 3-4 days."}, "IκBα / NF-κB": {"system": "IκBα / NF-κB", "settings": "mechanism; cited from earlier work"}}}
{"smiles": "CC(C)C[C@H](NC(=O)[C@H](Cc1ccccc1)NC(=O)c1cnccn1)B(O)O", "note": "[bortezomib]", "values": [{"measurement": "RELA occupancy (figure title)", "setting": "[1]; 786-O, 0.005 μM bortezomib, 9 hours", "value": "abrogates RELA occupancy"}, {"measurement": "RELA occupancy on the chromatin, PB1 KO", "setting": "[1]; PB1 KO 786-O cells, ChIP-qPCR", "value": "profound reduction of RELA occupancy"}, {"measurement": "survival, mice bearing PB1-deficient vs PB1-proficient cells", "setting": "NCC432 tumors; 0.5 mg/kg bortezomib", "value": "survived for a longer duration"}, {"measurement": "tumor response, PB1-deficient vs PB1-proficient isogenic cells", "setting": "NCC432 tumors; 0.5 mg/kg bortezomib, NSG mice", "value": "responded better"}, {"measurement": "median survival", "setting": "NCC432 tumors; NCC432 EV, 0.5 mg/kg bortezomib arm n=14, PBS arm 42 days", "value": 49, "unit": "days"}, {"measurement": "HR", "setting": "NCC432 tumors; NCC432 EV, bortezomib vs PBS, p=0.0009, log rank test", "value": 2.5}, {"measurement": "median survival", "setting": "NCC432 tumors; NCC432 PBRM1, 0.5 mg/kg bortezomib arm n=14, PBS arm 55 days", "value": 58, "unit": "days"}, {"measurement": "HR", "setting": "NCC432 tumors; NCC432 PBRM1, bortezomib vs PBS, p=0.5, log rank test", "value": 1.2}, {"measurement": "effect on IκBα and NF-κB DNA binding", "setting": "IκBα / NF-κB", "value": "induces nuclear translocation and accumulation of IκBα which then associates with nuclear NF-κB and inhibits its DNA binding activity"}]}
